Assay results as given in ChEMBL document CHEMBL6182889, “Discovery of the first-in-class DOT1L PROTAC degrader” (Eur J Med Chem, 2025).

Target: von Hippel-Lindau disease tumor suppressor/Histone-lysine N-methyltransferase, H3 lysine-79 specific (Homo sapiens, UniProt Q8TEK3+P40337)
Test: PROTAC activity at VHL/DOT1L in mixed-lineage leukemia rearranged (MLL-r) human MV4-11 cells assessed as induction of DOTIL degradation by measuring fold change in H3K79Me2 level at 3 uM incubated for 48 hrs by western blot analysis relative to control
Assay type: cell-based

von Hippel-Lindau disease tumor suppressor/Histone-lysine N-methyltransferase, H3 lysine-79 specific, sequence (P40337 whole entry, looked up): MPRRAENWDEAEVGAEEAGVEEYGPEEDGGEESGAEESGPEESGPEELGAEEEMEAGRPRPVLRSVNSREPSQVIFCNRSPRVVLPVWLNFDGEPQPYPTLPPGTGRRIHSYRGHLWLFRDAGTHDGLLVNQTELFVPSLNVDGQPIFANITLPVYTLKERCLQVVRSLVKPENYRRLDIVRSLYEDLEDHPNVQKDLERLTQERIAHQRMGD
von Hippel-Lindau disease tumor suppressor/Histone-lysine N-methyltransferase, H3 lysine-79 specific, sequence (Q8TEK3 whole entry, looked up): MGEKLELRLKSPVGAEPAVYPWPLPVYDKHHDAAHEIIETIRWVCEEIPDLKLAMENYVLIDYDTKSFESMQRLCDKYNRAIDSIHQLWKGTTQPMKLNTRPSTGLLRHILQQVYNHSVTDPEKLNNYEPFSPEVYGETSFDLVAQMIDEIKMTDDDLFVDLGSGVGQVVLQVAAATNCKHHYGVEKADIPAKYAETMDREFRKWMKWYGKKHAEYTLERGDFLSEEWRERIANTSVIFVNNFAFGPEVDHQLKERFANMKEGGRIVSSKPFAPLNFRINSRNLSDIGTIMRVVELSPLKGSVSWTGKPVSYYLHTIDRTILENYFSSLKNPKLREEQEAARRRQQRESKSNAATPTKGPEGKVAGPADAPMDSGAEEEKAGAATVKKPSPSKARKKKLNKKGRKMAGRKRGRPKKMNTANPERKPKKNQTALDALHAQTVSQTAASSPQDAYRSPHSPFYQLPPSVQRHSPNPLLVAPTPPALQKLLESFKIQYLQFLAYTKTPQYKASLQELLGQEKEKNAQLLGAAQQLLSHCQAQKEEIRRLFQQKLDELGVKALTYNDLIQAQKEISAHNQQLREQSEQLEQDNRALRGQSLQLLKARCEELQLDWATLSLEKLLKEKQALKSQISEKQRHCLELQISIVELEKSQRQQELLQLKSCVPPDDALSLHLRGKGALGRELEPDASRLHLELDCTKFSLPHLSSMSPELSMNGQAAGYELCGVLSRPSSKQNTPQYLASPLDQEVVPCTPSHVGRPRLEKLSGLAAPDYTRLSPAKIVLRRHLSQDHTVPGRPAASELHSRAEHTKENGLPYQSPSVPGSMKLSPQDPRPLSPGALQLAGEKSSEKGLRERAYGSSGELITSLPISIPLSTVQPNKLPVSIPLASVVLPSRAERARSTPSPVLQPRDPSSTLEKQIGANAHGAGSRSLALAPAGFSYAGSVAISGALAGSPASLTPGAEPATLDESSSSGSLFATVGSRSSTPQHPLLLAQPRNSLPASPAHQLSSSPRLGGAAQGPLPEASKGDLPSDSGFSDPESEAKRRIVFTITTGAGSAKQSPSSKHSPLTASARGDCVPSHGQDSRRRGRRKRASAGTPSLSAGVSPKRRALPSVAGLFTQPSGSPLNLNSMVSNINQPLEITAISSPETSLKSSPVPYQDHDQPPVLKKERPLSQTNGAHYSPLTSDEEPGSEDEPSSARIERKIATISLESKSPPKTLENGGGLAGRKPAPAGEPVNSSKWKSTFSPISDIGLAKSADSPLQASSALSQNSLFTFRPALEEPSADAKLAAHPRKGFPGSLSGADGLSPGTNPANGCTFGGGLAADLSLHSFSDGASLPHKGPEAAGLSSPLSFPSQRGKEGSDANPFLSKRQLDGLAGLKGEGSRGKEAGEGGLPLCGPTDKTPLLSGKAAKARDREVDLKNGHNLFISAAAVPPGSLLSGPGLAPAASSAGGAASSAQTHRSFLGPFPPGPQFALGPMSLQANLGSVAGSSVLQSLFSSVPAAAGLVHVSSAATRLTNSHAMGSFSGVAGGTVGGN

Cc1ncsc1-c1ccc([C@H](CC(=O)NCCCCCCNC(=O)COc2nc(N)nc(Nc3cc(S(N)(=O)=O)ccc3N[C@@H](c3cccc4c3OC(F)(F)O4)c3ncccc3Cl)n2)NC(=O)[C@@H]2C[C@@H](O)CN2C(=O)[C@@H](NC(=O)C2(F)CC2)C(C)(C)C)cc1
fold change (FC): 0.12
